The record followed here is patent US20230277569A1, “Compositions and Methods for Treating, Ameliorating and/or Preventing Cancer and Kits for the Same” (priority 2022, published 2023).

The nature of this data set: Stability and particle size distribution of Gamitrinib Injectable Suspension (GIS). The format is physicochemical. Here is the method: A sequential three-step process was utilized to prepare Good Laboratory Practice (GLP) working solutions of Gamitrinib (5 mg/mL) for preclinical studies. The formulation workflow is as follows: Step 1—Solubilization of Gamitrinib powder in DMSO (2.5%); […] Step 3—Dilution in 5% dextrose (87.5%). […] For Good Manufacturing Practice (GMP) studies, a Gamitrinib Injectable Suspension (GIS) was prepared by microfluidization. Gamitrinib stock solutions prepared as above were passed through a microfluidizer (Dyhydromatics, Acton, Mass.) with rate of flow set at low, medium, and high. At the end of GIS processing, microfluidization was continued at reduced pressure (2000 psi) for 1-2 min. […] Gamitrinib is formulated using a three-step dilution process described in the Materials and Methods section. A sterile, Gamitrinib Injectable Suspension (GIS) is prepared for clinical use using microfluidization with the schematic flowchart shown in FIG. 5B.

In the case of `CO[C@H]1/C=C\C=C(/C)C(=O)NC2=CC(=O)C(NCCCCCC[P+](c3ccccc3)(c3ccccc3)c3ccccc3)=C(C[C@@H](C)C[C@H](OC)[C@H](O)[C@@H](C)/C=C(\C)[C@@H]1OC(N)=O)C2=O` [Gamitrinib, 17-Demethoxy-17-((6-(triphenylphosphonio)hexyl)amino)geldanamycin], where the note is “injectable suspension at −20° C.”, the “stable (time of storage)” value is recorded as not below 24 weeks. Where the note is “injectable suspension produced by microfluidization”, this compound had a particle size of less than 200 nm.
